Laboratory results: PMC5675747 (The Journal of steroid biochemistry and molecular biology, 2017)

Experiments:
zfSult2st2 = target: T1, zfSult2st2 (Danio rerio, UniProt A0EXC5); assay: […]PAPS sulfation assay, TLC and scintillation counting; assay type: biochemical; settings: 14 μM PAPS, 50 mM Mops pH 7.0, 1 mM DTT, 28 °C; substrate inhibition constant
T1 sequence (A0EXC5 1-287): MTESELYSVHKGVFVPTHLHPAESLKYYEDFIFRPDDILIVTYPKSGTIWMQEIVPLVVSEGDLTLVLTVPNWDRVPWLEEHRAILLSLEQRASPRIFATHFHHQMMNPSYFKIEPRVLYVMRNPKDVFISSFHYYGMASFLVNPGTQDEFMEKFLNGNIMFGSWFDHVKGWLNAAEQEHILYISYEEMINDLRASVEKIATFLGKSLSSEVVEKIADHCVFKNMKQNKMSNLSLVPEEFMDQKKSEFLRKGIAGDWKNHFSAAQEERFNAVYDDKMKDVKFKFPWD

zfSult2st3 = target: T2, zfSult2st3 (Danio rerio, UniProt A0ACM8QCA3); assay: as above; assay type: biochemical; settings: 14 μM PAPS, 50 mM Mops pH 7.0, 1 mM DTT, 28 °C; substrate inhibition constant
T2 sequence (A0ACM8QCA3 1-288): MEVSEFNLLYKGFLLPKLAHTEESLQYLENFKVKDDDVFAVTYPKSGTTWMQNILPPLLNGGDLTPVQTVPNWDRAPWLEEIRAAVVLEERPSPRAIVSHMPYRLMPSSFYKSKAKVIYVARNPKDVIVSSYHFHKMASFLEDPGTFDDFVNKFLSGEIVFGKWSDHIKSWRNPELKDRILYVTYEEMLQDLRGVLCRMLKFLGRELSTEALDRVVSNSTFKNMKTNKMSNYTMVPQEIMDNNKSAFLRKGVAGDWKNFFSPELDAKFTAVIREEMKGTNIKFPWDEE

hSULT2A1 = target: T3, hSULT2A1 (Homo sapiens, UniProt Q06520); assay: as above; assay type: biochemical; settings: 14 μM PAPS, 50 mM Mops pH 7.0, 1 mM DTT, 37 °C; substrate inhibition constant
T3 sequence (Q06520 1-285): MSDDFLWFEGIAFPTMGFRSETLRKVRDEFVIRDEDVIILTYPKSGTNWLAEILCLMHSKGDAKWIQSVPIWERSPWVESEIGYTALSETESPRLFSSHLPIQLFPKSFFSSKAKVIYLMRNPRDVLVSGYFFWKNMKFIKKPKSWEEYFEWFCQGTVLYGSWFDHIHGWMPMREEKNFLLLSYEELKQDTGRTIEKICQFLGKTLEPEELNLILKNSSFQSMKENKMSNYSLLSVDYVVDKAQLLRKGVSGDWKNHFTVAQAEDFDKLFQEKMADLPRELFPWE

zfSult3st4 = target: T4, zfSult3st4 (Danio rerio, UniProt A0A8M1P203); assay: as above; assay type: biochemical; settings: 14 μM PAPS, 50 mM Mops pH 7.0, 1 mM DTT, 28 °C; substrate inhibition constant
T4 sequence (A0A8M1P203 1-299): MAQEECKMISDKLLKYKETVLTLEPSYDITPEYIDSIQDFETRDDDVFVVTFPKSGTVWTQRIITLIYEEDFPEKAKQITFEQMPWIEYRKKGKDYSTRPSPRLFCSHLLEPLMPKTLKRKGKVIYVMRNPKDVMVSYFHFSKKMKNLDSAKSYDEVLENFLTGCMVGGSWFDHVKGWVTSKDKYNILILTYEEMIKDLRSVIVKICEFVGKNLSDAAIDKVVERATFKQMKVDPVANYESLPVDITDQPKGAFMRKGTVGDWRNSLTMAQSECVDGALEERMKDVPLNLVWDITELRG

purified protein [1] = substrate: C[C@H](CCCC(CO)CO)[C@H]1CC[C@H]2[C@@H]3[C@H](O)C[C@@H]4C[C@H](O)CC[C@]4(C)[C@H]3C[C@H](O)[C@]12C; assay: purified protein; assay type: biochemical, Danio rerio; settings: 14 μM PAPS, 50 mM Mops pH 7.0, 1 mM DTT, 28 °C
purified protein [2] = substrate: C[C@H](CCCC(CO)CO)[C@H]1CC[C@H]2[C@@H]3[C@H](O)C[C@@H]4C[C@H](O)CC[C@]4(C)[C@H]3C[C@H](O)[C@]12C; assay: purified protein; assay type: biochemical, Homo sapiens; settings: 14 μM PAPS, 50 mM Mops pH 7.0, 1 mM DTT, 37 °C

Molecule: C[C@H](CCCC(CO)CO)[C@H]1CC[C@H]2[C@@H]3[C@H](O)C[C@@H]4C[C@H](O)CC[C@]4(C)[C@H]3C[C@H](O)[C@]12C [5β-cyprinol]
- Ki (zfSult2st2): 58.15 ± 5.74 µM
- Ki (zfSult2st3): 39.78 ± 6.70 µM

Molecule: C[C@H](CCCC(CO)CO)[C@H]1CC[C@H]2[C@@H]3[C@H](O)C[C@H]4C[C@H](O)CC[C@]4(C)[C@H]3C[C@H](O)[C@]12C [5α-cyprinol, 3α,7α,12α,26,27-pentahydroxy-5α-cholestane]
- Ki (hSULT2A1): 210.8 ± 19.9 µM
- Ki (zfSult3st4): 164.9 ± 22.2 µM
- Ki (zfSult2st2): 27.43 ± 11.16 µM
- Ki (zfSult2st3): 373.9 ± 38.0 µM

B1: zfSult3st4 (Danio rerio) (protein)
chain: MAQEECKMISDKLLKYKETVLTLEPSYDITPEYIDSIQDFETRDDDVFVVTFPKSGTVWTQRIITLIYEEDFPEKAKQITFEQMPWIEYRKKGKDYSTRPSPRLFCSHLLEPLMPKTLKRKGKVIYVMRNPKDVMVSYFHFSKKMKNLDSAKSYDEVLENFLTGCMVGGSWFDHVKGWVTSKDKYNILILTYEEMIKDLRSVIVKICEFVGKNLSDAAIDKVVERATFKQMKVDPVANYESLPVDITDQPKGAFMRKGTVGDWRNSLTMAQSECVDGALEERMKDVPLNLVWDITELRG
- Km (purified protein [1]): 98.9 ± 2.89 µM
- Vmax (purified protein [1]): 0.00397 µmol/min/mg

B2: hSULT2A1 (Homo sapiens) (protein)
chain: MSDDFLWFEGIAFPTMGFRSETLRKVRDEFVIRDEDVIILTYPKSGTNWLAEILCLMHSKGDAKWIQSVPIWERSPWVESEIGYTALSETESPRLFSSHLPIQLFPKSFFSSKAKVIYLMRNPRDVLVSGYFFWKNMKFIKKPKSWEEYFEWFCQGTVLYGSWFDHIHGWMPMREEKNFLLLSYEELKQDTGRTIEKICQFLGKTLEPEELNLILKNSSFQSMKENKMSNYSLLSVDYVVDKAQLLRKGVSGDWKNHFTVAQAEDFDKLFQEKMADLPRELFPWE
- Km (purified protein [2]): 221.3 ± 23.1 µM
- Vmax (purified protein [2]): 0.00224 µmol/min/mg
